From US7678918B2, “Intermediates for imidazonaphthyridines” (3M Innovative Properties Company, priority 1997, dated 2010)
Where a name gives a salt, the structure may show the parent alone.

Tests used:
TNF = assay: Cytokine Induction in Human Cells: tumor necrosis factor (TNF) secreted by PBMCs, ELISA; type: cell-based; details: 18 to 24 hours
Text: (§1) An in vitro human blood cell system was used to assess cytokine induction by compounds of the invention. Activity is based on the measurement of interferon and tumor necrosis factor (ℑ) (IFN and TNF, respectively) secreted into culture media as described by Testerman et. al. In “Cytokine Induction by the Immunomodulators Imiquimod and S-27609”, Journal of Leukocyte Biology, 58, 365-372 (September, 1995). Blood Cell Preparation for Culture
(§2) Whole blood is collected by venipuncture into EDTA vacutainer tubes from healthy human donors. Peripheral blood mononuclear cells (PBMCs) are separated from whole blood by Histopaque®-1077 (Sigma Chemicals, St. Louis, Mo.) density gradient centrifugation. The PBMCs are suspended at 1.5-2×10^6 cells/mL in RPMI 1640 medium containing 10% fetal bovine serum, 2 mM L-glutamine and 1% penicillin/streptomycin solution (RPMI complete). 1 mL portions of PBMC suspension are added to 24 well flat bottom sterile tissue culture plates.
(§3) The compounds are solubilized in dimethyl sulfoxide (DMSO). The DMSO concentration should not exceed a final concentration of 1% for addition to the culture wells. The compounds are generally tested in a concentration range of from 0.1 to 100 μM.
(§4) The solution of test compound is added to the wells containing 1 mL of PBMCs in media. The plates are covered with plastic lids, mixed gently and then incubated for 18 to 24 hours at 37° C. with a 5% carbon dioxide atmosphere.
(§5) Following incubation the plates are centrifuged for 5-10 minutes at 1000 rpm (˜200×g) at 4° C. The cell culture supernatant is removed with a sterile polypropylene pipet and transferred to a 2 mL sterile cryotube. Samples are maintained at −70° C. until analysis.
Tumor necrosis factor (ℑ) (TNF) concentration is determined using an ELISA kit available from Genzyme, Cambridge, Mass. The results are expressed as pg/mL.

IFN = assay: Cytokine Induction in Human Cells: interferon (IFN) secreted by PBMCs, A549/encephalomyocarditis bioassay; type: cell-based; details: 18 to 24 hours
Text: as §1, §2, §3, §4, §5
Interferon is determined by bioassay using A549 human lung carcinoma cells challenged with encephalomyocarditis. The details of the bioassay method have been described by G. L. Brennan and L. H. Kronenberg in “Automated Bioassay of Interferons in Micro-test Plates”, Biotechniques, June/July 78, 1983, incorporated herein by reference. Briefly stated the method is as follows: A549 cells are incubated with samples and standard interferon dilutions at 37° C. for 24 hours. The incubated cells are then infected with an inoculum of encephalomyocarditis virus. The infected cells are incubated for an additional 24 hours at 37° C. before quantifying for viral cytopathic effect. The viral cytopathic effect is quantified by staining followed by visual scoring of the plates. Results are expressed as alpha reference units/mL based on the value obtained for NIH Human Leukocyte IFN standard.
Note: call rule not given here.

Structure (SMILES)	TNF induction (TNF; Dose Concentration 0.1 μM)	TNF induction (TNF; Dose Concentration 1.0 μM)	TNF induction (TNF; Dose Concentration 10.0 μM)	TNF induction (TNF; Dose Concentration 100.0 μM)	IFN induction (IFN; Dose Concentration 0.1 μM)	IFN induction (IFN; Dose Concentration 1.0 μM)	IFN induction (IFN; Dose Concentration 10.0 μM)	IFN induction (IFN; Dose Concentration 100.0 μM)
CCCCc1nc2c(N)nc3cccnc3c2n1CCCCNC(=O)Nc1ccccc1 [Example 47, N-[4-(4-Amino-2-butyl-1H-imidazo[4,5-c][1,5]naphthyridin-1-yl)butyl]-N′-phenylurea]	−	+	+	+	−	+	+	±
CCCCc1nc2c(N)nc3cccnc3c2n1CCCCNC(=O)NC1CCCCC1 [Example 48, N-[4-(4-Amino-2-butyl-1H-imidazo[4,5-c][1,5]naphthyridin-1-yl)butyl]-N′-cyclohexylurea]	−	+	+	−	+	+	+	−
CCCCNC(=O)NCCCCn1c(CCCC)nc2c(N)nc3cccnc3c21 [Example 49, N-[4-(4-Amino-2-butyl-1H-imidazo[4,5-c][1,5]naphthyridin-1-yl)butyl]-N′-butylurea]	−	+	+	+	+	+	+	+
CCCCc1nc2c(N)nc3cccnc3c2n1CCCCNC(=O)Oc1ccccc1 [Example 50, Phenyl N-[4-(4-Amino-2-butyl-1H-imidazo[4,5-c][1,5]naphthyridin-1-yl)butyl]carbamate]		+	+	−		+	+	−
CCCCc1nc2c(N)nc3cccnc3c2n1CCCCNC(=O)c1ccco1 [Example 51, N-[4-(4-Amino-2-butyl-1H-imidazo[4,5-c][1,5]naphthyridin-1-yl)butyl]-2-furamide]		+	+	−		+	+	+
CCCCc1nc2c(N)nc3cccnc3c2n1CCCCNC(=O)c1ccccc1 [Example 52, N-[4-(4-Amino-2-butyl-1H-imidazo[4,5-c][1,5]naphthyridin-1-yl)butyl]benzamide]		+	+	−		+	+	−
CCCCc1nc2c(N)nc3cccnc3c2n1CCCCNC(=O)NCc1ccccc1 [Example 53, N-[4-(4-Amino-2-butyl-1H-imidazo[4,5-c][1,5]naphthyridin-1-yl)butyl]-N′-benzylurea]	−	+	+	−	+	+	+	+
CCCCc1nc2c(N)nc3cccnc3c2n1CCCCNC(=O)c1cccnc1 [Example 54, N^3-[4-(4-Amino-2-butyl-1H-imidazo[4,5-c][1,5]naphthyridin-1-yl)butyl]nicotinamide]		+	+	+		+	+	+
CCCCc1nc2c(N)nc3cccnc3c2n1CCCCNC(=O)Cc1ccccc1 [Example 55, N-[4-(4-Amino-2-butyl-1H-imidazo[4,5-c][1,5]naphthyridin-1-yl)butyl]phenylaceatamide]		+	+	−		+	+	+
CCCCc1nc2c(N)nc3cccnc3c2n1CCCCNC(=O)OCc1ccccc1 [Example 56, Benzyl N-[4-(4-Amino-2-butyl-1H-imidazo[4,5-c][1,5]naphthyridin-1-yl)butyl]carbamate]	−	−	+	−	−	+	+	−
CCCCc1nc2c(N)nc3cccnc3c2n1CCCCNC(=O)OCC1c2ccccc2-c2ccccc21 [Example 57, 9H-9-Fluorenylmethyl N-[4-(4-Amino-2-butyl-1H-imidazo[4,5-c][1,5]naphthyridin-1-yl)butyl]carbamate]	−	−	+	+	−	+	+	+
CCCCc1nc2c(N)nc3cccnc3c2n1CCCCNC(=O)OCC [Example 58, Ethyl N-[4-(4-Amino-2-butyl-1H-imidazo[4,5-c][1,5]naphthyridin-1-yl)butyl]carbamate]	−	+	+	−	+	+	+	−
CCCCc1nc2c(N)nc3cccnc3c2n1CCNC(=O)CCc1ccccc1 [Example 96, N^1-[2-(4-Amino-2-butyl-1H-imidazo[4,5-c][1,5]naphthyridin-1-yl)ethyl]-3-phenylpropanamide Hydrochloride]	−	−	+	+	−	±	+	+
CCCCc1nc2c(N)nc3cccnc3c2n1CCNC(=O)C(N)CC(C)C (centres unmarked) [Example 102, N^1-[2-(4-Amino-2-butyl-1H-imidazo[4,5-c][1,5]naphthyridin-1-yl)ethyl]-2-amino-4-methylpentanamide]	+	+	+	+	+	+	+	+
CCCCc1nc2c(N)nc3cccnc3c2n1CCCCNC(=O)CCCCn1cnc2c1c(=O)n(C)c(=O)n2C [Example 105, N^1-[4-(4-Amino-2-butyl-1H-imidazo[4,5-c][1,5]naphthyridin-1-yl)butyl]-5-(1,3-dimethyl-2,6-oxo-2,3,6,7-tetrahydro-1H-purinyl)pentamide]	−	−	+	+	+	+	+	+
CCCCc1nc2c(N)nc3cccnc3c2n1CCCCNC(=O)c1ccc(N2CCOCC2)nc1 [Example 106, N^1-[4(4-Amino-2-butyl-1H-imidazo[4,5-c][1,5]naphthyridin-1-yl)butyl]-6-morpholinonicotinamide]	−	+	+	−	+	+	+	−
CCCCc1nc2c(N)nc3cccnc3c2n1CCCCNC(=O)c1ccc2ncccc2c1 [Example 107, N^1-[4-(4-Amino-2-butyl-1H-imidazo[4,5-c][1,5]naphthyridin-1-yl)butyl]-6-quinolinecarboxamide]	−	+	+	−	+	+	+	−
CCCCc1nc2c(N)nc3cccnc3c2n1CCCCNC(=O)c1ccc(C(=O)c2ccccc2)cc1 [Example 113, N^1-[4-(4-Amino-2-butyl-1H-imidazo[4,5-c][1,5]naphthyridin-1-yl)butyl]-4-benzoylbenzamide]	−	+	+	+	−	+	+	+
